Source: patent US20040009904A1, “APL immunoreactive peptides, conjugates thereof and methods of treatment for aPL antibody-mediated pathologies” (priority 1995, published 2004)
Bridge positions count the residues as written; N and C are the ends. Peptide text beside a SMILES is read from it.

Experiments:
ACA-6641 = assay: Competitive binding peptide ACA ELISA, cardiolipin/β2-GPI-coated plates; set-up: species or system human; conditions: peptide 1 mg/mL, affinity purified antibody
Procedure, shortened: (§1)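 Read-out: A550 from alkaline phosphatase anti-human IgG after 21 min PMPP development. IC50 = peptide amount giving half-maximal absorbance, i.e. 50% inhibition of aPL binding to CL/β2-GPI plates. Peptide–antibody mixtures incubated 1 h RT on plates; β2-GPI from IgG-depleted human serum.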

ACA-6644 = assay: as above; set-up: species or system human; conditions: peptide 1 mg/mL, affinity purified antibody
Procedure, shortened: as §1

ACA-6701 = assay: as above; set-up: species or system human; conditions: peptide 1 mg/mL, affinity purified antibody
Procedure, shortened: as §1

ACA-6626 = assay: as above; set-up: species or system human; conditions: peptide 1 mg/mL, affinity purified antibody
Procedure, shortened: as §1

ACA-6638 = assay: as above; set-up: species or system human; conditions: peptide 1 mg/mL, affinity purified antibody
Procedure, shortened: as §1

ACA-6903 = assay: as above; set-up: species or system human; conditions: peptide 1 mg/mL, affinity purified antibody
Procedure, shortened: as §1

ACA-7005 = assay: as above; set-up: species or system human; conditions: peptide 1 mg/mL, affinity purified antibody
Procedure, shortened: as §1

ACA-7004 = assay: as above; set-up: species or system human; conditions: peptide 1 mg/mL, affinity purified antibody
Procedure, shortened: as §1

ACA-6501 [1] = assay: Phage-ELISA; type: binding, human; conditions: phage clones coated on wells, affACA-6501 2.5 μg/mL
Procedure: This method of selecting phage requires very tight binding of the insert to the screening antibody. Phage are directly coated onto wells of a microtitration plate and incubated with the screening antibody. Following washes to remove unbound antibody, an anti-human IgG alkaline phosphatase conjugate is added to bind any aPL antibodies bound to the phage. APL antibodies are then detected by adding a calorimetric substrate to the well which will react with alkaline phosphatase according to methods well known in the art.
Three mL cultures were prepared from 35 clones previously isolated with affinity purified ACA-6501 in several phage library screens as well as one fUSE 2 phage clone lacking a peptide insert which was used as a control. After centrifugation for 3 minutes at 17,000×g, 100 μL from each phage supernatant (adjusted to −2×10^11 particles/mL, based on absorbance) was added to microtitration plate wells (Falcon, Becton-Dickinson Labware, Lincoln Park, N.Y.) and allowed to incubate overnight at 4° C. Following four washes with TBS 7.4, the plate was blocked with 125 μL of 0.5% BSA/TBS for 1 hour at RT. After another four TBS washes, 100 μL of affACA-6501 previously diluted to 2.5 μg/mL in TBS/BSA was added to each well and allowed to incubate 1 hour at 37° C. Following an additional four washes, 100 μL anti-human IgG diluted 1:1000 in TBS/0.5% Tween was added to each well. After 1 hour at RT, enzyme substrate was added and the incubation allowed to proceed for 2 hours. Following the addition of 50 μL 0.2 M Na2HPO4 to stop the reaction, absorbance was measured at 550 nm in the automated plate absorbance reader. […] The sequences for these clones are showvn in Table 2.

ACA-6501 [2] = assay: Competitive binding peptide ACA ELISA, cardiolipin/β2-GPI-coated plates; set-up: species or system human; conditions: peptide 1 mg/mL, affinity purified antibody
Procedure, shortened: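 Monomeric peptides at several amounts were preincubated ~1 h at RT with ACA-6501 serum (final 1:400), then added to cardiolipin-coated, fish-gelatin-blocked plates with β2-GPI for 1 h at RT. Bound IgG was detected with alkaline phosphatase anti-human IgG and phenolphthalein monophosphate, read at 550 nm. IC50 was the peptide amount at half-maximal absorbance.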

ACA antibodies = assay: Competitive binding peptide ACA ELISA, cardiolipin/β2-GPI-coated plates, panel of ACA antibodies (average); set-up: species or system human; conditions: peptide 1 mg/mL, average over nine antibodies
Procedure: A variation of this assay uses microtitration plates coated with human β2-glycoprotein I/cardiolipin (β2-GPI/CL) instead of tetravalent peptide and tests the ability of monomeric peptides to block the binding of aPL antibody to the epitope(s) on β2-GPI/CL. In this assay, IgG-depleted human serum at an optimized concentration is used as a source of β2-GPI. The monomeric peptides at several concentrations are incubated with an optimized concentration of aPL antibody in a manner analogous to the assay which employs tetravalent peptide as a plate substrate. Following the incubation of aPL/peptide in (β2-GPI/CL) plates, antibody binding and the peptide concentration required for 50% inhibition is determined at half-maximal absorbance as in the tetravalent assay.
Peptide sequences for all five peptides immediately follow the table. All were tested using the competitive binding peptide ACA ELISA using CL/β2-GPI plates as described herein.
As noted in Section I above, one synthetic peptide, 6641/3G3 was tested against several high titer ACA antisera. This peptide appeared to be crossreactive with the vast majority of ACA antisera tested as illustrated in FIG. 14.
(B) Immulon I® 96-well, flat-bottom, polystyrene microtitration plates (Dynatech Laboratories, Inc., Chantilly, Va.) were coated with 30 μL/well of cardiolipin (CL, 50 μg; Sigma Chemical Co., St. Louis, Mo.) in ethanol. Two control wells received 30 μL ethanol only. After overnight evaporation at 4° C., each well was blocked with 200 μL of 5% (w/v) fish gelatin in PBS for 2 hours at RT.
The CL/β2-GPI microtitration plate was washed 5 times with TBS and 100 μL aliquots in duplicate from Eppendorf tubes #1, 2, 3, and 4 containing the antibody-peptide (or no peptide mixtures) were added to the wells. A volume of 100 μL from tube #4 was added to the duplicate control wells containing no cardiolipin. The microtitration plate was incubated for 1 hour at RT with agitation at 40 rpm in an orbital shaker (American Scientific, Rotator V), washed 5 times with TBS and then 100 μL of 1:1000 goat anti-human IgG alkaline phosphatase conjugate (Zymed, Cat No. 62-8422) in 0.5% (w/v) BSA-TBS was added. Following incubation for 1 hour at RT, the microtitration plate was again washed 5 times with TBS and the colorimetric enzyme detection developed by adding 100 μL of PMPP solution (7.8 g phenolphthalein monophosphate plus 69.5 g of 2-amino-2-methyl-1-propanol in 100 mL water stock solution diluted 1:26 with water). After 21 minutes, the reaction was stopped by adding 50 μL of 0.2 M Na2HPO4 (Mallinckrodt) to each well. Absorbance at 550 nm was read in a microplate reader (Bio-Tek Instruments, Model EL 311). The amount of peptide that inhibited ACA-6501 binding by 50%, the IC50, was calculated from the graph at the intersection of half-maximal absorbance with amount of peptide added.

With CC(C)C[C@@H]1NC(=O)[C@H](CC(C)C)NC(=O)[C@H](CC(C)C)NC(=O)[C@@H](NC(=O)[C@@H]2CCCN2C(=O)CNC(=O)[C@H](C)N)CSSC[C@@H](C(=O)N2CCC[C@H]2C(=O)NCC(=O)O)NC(=O)[C@H](CCCNC(=N)N)NC(=O)[C@H](CC(=O)O)NC(=O)[C@@H]2CCCN2C(=O)[C@H](C)NC1=O [3B10, AGPCLLLAPDRCPG] (H-AGPCLLLAPDRCPG-OH; disulfide 4-12) the “Percent Inhibition of AffACA by Peptide Monomers, 6641” value (ACA-6641) was 52%, the “Percent Inhibition of AffACA by Peptide Monomers, 6644” value (ACA-6644) was 55% and the “Percent Inhibition of AffACA by Peptide Monomers, 6701” value (ACA-6701) was 51%. The “Percent Inhibition of AffACA by Peptide Monomers, 6626” value (ACA-6626) was 76%, the “Percent Inhibition of AffACA by Peptide Monomers, 6638” value (ACA-6638) was 87% and the “Percent Inhibition of AffACA by Peptide Monomers, 6903” value (ACA-6903) was 69%. The “Percent Inhibition of AffACA by Peptide Monomers, 7005” value (ACA-7005) was 47%, the “Percent Inhibition of AffACA by Peptide Monomers, 7004” value (ACA-7004) was 87% and the “signal in the phage-ELISA” value (ACA-6501 [1]) was “significant signals”. For the same compound, the “Percent Inhibition of AffACA by Peptide Monomers, 6501” value (ACA-6501 [2]) was 60% and the “Percent Inhibition of AffACA by Peptide Monomers, Ave.” value (ACA antibodies) was 65%.
